Each structure is given as a SMILES string. Some results are limits rather than exact numbers.

Test [1] concerns the target human TLR8 (Homo sapiens (Human), UniProt Q9NR97). The test can be described thus: TLR8 inhibition reporter assay (HEK-Blue SEAP).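 Also: SEAP driven by IFN-β minimal promoter carrying NF-κB and AP-1 sites, compounds dosed 0.05 nM to 50 µM for 22 h, inhibition scaled between agonist-plus-DMSO and reference-inhibitor wells.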 As to conditions: read-out: TLR8 IC50; HEK-Blue cells overexpressing human TLR8, R848 15.9 μM stimulation, SEAP reporter. A general note: Reporter assays use an easily measured gene product as a stand-in for the process of interest.
Test [2] deals with human TLR7 (Homo sapiens (Human), UniProt Q9NYK1). The test can be described thus: TLR7 inhibition reporter assay (HEK-Blue SEAP). Format: cell-based. As to conditions: HEK-Blue cells overexpressing human TLR7, gardiquimod 7.5 μM stimulation, SEAP reporter.
Test [3] has as its target human TLR9 (Homo sapiens (Human), UniProt Q9NR96). The test can be described thus: TLR9 inhibition reporter assay (HEK-Blue SEAP).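 Also: SEAP driven by an IFN-β minimal promoter with NF-κB and AP-1 sites, read after 22 h, compounds dosed 0.05 nM–50 µM, inhibition scaled between agonist plus DMSO and reference-inhibitor wells.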 To be noted: read-out: TLR9 IC50; HEK-Blue cells overexpressing human TLR9, ODN2006 5 nM stimulation, SEAP reporter.

Sequence of human TLR7 (Q9NYK1 27-1049): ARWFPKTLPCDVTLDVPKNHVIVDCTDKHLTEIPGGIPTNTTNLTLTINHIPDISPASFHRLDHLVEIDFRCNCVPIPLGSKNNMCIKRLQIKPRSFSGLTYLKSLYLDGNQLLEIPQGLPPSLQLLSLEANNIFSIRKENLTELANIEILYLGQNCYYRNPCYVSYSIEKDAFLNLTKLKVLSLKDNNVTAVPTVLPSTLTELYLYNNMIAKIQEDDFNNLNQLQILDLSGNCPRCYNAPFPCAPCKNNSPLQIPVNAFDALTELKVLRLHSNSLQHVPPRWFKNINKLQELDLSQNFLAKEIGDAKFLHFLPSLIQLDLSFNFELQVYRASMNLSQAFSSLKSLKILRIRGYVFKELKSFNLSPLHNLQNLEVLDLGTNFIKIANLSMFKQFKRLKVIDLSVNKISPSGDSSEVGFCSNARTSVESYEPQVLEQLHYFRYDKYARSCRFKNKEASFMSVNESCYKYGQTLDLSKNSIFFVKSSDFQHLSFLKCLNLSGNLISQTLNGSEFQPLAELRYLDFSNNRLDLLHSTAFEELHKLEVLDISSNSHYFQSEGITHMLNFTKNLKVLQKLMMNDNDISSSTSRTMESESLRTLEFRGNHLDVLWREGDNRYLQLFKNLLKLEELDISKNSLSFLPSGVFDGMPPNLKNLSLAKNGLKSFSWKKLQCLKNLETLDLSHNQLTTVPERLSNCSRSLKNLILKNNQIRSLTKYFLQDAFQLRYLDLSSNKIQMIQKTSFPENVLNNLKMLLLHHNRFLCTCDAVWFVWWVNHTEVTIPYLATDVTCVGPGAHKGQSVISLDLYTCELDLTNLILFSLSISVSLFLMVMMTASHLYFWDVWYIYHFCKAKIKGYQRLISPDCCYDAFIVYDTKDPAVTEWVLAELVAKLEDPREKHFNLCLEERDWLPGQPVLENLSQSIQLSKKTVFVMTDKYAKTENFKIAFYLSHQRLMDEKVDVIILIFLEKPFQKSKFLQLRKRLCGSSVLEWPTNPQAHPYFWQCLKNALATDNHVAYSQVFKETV
Sequence of human TLR9 (Q9NR96 26-1032): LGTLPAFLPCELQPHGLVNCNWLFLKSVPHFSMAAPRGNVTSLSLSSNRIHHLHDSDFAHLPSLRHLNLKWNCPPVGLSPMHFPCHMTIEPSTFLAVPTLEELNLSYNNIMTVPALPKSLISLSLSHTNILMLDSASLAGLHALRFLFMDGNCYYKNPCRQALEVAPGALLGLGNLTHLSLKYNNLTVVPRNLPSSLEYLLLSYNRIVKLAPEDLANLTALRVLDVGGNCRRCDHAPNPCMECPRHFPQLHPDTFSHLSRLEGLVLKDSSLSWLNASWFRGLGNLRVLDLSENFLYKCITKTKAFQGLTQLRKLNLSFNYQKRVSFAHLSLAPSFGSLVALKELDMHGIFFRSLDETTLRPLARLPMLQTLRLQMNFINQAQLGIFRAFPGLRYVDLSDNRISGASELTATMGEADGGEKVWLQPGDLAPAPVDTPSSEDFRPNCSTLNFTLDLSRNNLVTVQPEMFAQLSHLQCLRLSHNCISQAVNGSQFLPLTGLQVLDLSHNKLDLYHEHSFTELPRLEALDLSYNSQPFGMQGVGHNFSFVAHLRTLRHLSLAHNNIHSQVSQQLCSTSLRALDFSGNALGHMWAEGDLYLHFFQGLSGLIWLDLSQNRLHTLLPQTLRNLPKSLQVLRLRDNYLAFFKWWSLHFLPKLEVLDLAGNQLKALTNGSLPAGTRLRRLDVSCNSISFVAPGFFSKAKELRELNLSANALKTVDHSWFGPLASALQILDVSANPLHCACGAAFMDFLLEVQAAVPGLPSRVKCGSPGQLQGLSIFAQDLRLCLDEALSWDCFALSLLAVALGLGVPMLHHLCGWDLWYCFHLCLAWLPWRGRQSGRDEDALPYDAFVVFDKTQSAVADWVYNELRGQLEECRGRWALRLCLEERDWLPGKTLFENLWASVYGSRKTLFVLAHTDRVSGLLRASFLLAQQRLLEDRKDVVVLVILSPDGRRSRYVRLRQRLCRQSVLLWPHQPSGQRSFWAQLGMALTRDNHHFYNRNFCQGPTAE
Sequence of human TLR8 (Q9NR97 27-1041): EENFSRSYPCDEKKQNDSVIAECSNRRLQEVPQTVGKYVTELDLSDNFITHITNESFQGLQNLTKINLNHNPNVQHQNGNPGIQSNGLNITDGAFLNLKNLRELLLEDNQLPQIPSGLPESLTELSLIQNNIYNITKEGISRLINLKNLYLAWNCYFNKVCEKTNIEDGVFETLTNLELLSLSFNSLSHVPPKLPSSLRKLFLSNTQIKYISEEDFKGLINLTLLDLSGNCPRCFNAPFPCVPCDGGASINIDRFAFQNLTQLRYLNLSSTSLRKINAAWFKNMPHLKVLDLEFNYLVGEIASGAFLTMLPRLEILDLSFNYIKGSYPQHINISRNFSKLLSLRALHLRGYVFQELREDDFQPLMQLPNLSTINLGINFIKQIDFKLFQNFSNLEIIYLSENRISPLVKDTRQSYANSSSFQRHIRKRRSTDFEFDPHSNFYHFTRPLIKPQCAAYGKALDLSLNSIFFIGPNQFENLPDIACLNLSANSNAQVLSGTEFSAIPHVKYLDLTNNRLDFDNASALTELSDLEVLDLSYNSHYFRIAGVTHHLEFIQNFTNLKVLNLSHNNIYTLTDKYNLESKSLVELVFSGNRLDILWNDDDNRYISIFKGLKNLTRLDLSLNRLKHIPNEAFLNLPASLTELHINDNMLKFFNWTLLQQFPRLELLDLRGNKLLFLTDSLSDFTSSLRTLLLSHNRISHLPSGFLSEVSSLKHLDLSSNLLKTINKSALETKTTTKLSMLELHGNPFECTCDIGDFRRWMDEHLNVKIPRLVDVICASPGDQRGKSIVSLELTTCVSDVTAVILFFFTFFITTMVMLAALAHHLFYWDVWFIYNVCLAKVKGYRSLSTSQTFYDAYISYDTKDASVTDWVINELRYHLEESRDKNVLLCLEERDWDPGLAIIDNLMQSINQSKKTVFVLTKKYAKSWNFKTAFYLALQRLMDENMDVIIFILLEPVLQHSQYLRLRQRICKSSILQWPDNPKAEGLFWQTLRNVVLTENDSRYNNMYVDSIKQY

Broadly, the IC50 is the point on the concentration scale where inhibition reaches its midpoint. On to `CC(C)c1c(-c2cn(C)c3ncncc23)[nH]c2ccc(N3CCN(C4CCOCC4)CC3)nc12` [Example 127], for which the IC50 in test [1] was 0.48 nM; in test [2] it was 4.6 nM; in test [3] it was 5900 nM.
The matching figures for `COc1cc(-c2[nH]c3ccc(N4CCN(CC(=O)N(C)C)CC4)nc3c2C(C)C)cn2ncnc12` [Example 128]: 2.6 nM, 5.4 nM and 35400 nM.
`COc1cc(-c2[nH]c3ccc(N4CCN(Cc5cn(C)nn5)CC4)nc3c2C(C)C)cn2ncnc12` [Example 129]: the IC50 worked out at 1.3 nM in test [1], 6.7 nM in test [2] and 22800 nM in test [3].
Regarding `COc1cc(-c2[nH]c3ccc(N4CCN(CC(N)=O)CC4)nc3c2C(C)C)cn2ncnc12` [Example 130], the IC50 is 4.7 nM in test [1], 4.3 nM in test [2] and more than 50000 nM in test [3].
For `COCCN1CCN(c2ccc3[nH]c(-c4cc(OC)c5ncnn5c4)c(C(C)C)c3n2)CC1` [Example 131], the IC50 in test [1] was determined as 0.63 nM; in test [2], 3.3 nM; in test [3], 8570 nM.
As for `COc1cc(-c2[nH]c3ccc(N4CCN(CCCS(C)(=O)=O)CC4)nc3c2C(C)C)cn2ncnc12` [Example 132], the IC50 in test [1] amounted to 0.51 nM; in test [2], 2.8 nM; in test [3], 7390 nM.
As to `COc1cc(-c2[nH]c3ccc(N4CCN(C5CCS(=O)(=O)CC5)CC4)nc3c2C(C)C)cn2ncnc12` [Example 133], the IC50 in test [1] was 1.4 nM; in test [2], 4.3 nM; in test [3] it was more than 50000 nM.
With `COc1cc(-c2[nH]c3ccc(N4CCN(CCNS(C)(=O)=O)CC4)nc3c2C(C)C)cn2ncnc12` [Example 134], the IC50 in test [1] worked out at 1.1 nM; in test [2] it was 3.7 nM; in test [3] it was 26100 nM.
The matching figures for `COc1cc(-c2[nH]c3ccc(N4CCN(CCCC(F)(F)F)CC4)nc3c2C(C)C)cn2ncnc12` [Example 135]: 1.6 nM, 4.7 nM and 13200 nM.
On to `COc1cc(-c2[nH]c3ccc(N4CCN(CCC(=O)N(C)C)CC4)nc3c2C(C)C)cn2ncnc12` [Example 136], for which the IC50 in test [1] amounted to 0.79 nM; in test [2] it was 5.7 nM; in test [3] it was 8220 nM.
Take `COc1cc(-c2[nH]c3ccc(N4CCN(CCC(N)=O)CC4)nc3c2C(C)C)cn2ncnc12` [Example 137]: the IC50 in test [1] was determined as 1.3 nM; in test [2], 5.6 nM; in test [3] it was 8450 nM.
The like results for `CNC(=O)CN1CCN(c2ccc3[nH]c(-c4cc(OC)c5ncnn5c4)c(C(C)C)c3n2)CC1` [Example 138] were, in that order, 4.6 nM, 11 nM and more than 50000 nM.
Take `Cc1c(-c2[nH]c3ccc(N4CCNCC4=O)nc3c2C(C)C)cn2ncnc2c1C` [Example 139]: the IC50 is 14 nM in test [1], 37 nM in test [2] and more than 50000 nM in test [3].
For the compound `Cc1c(-c2[nH]c3ccc(N4CCN(C5COC5)CC4=O)nc3c2C(C)C)cn2ncnc2c1C` [Example 140], the IC50 is 186 nM in test [1], 127 nM in test [2] and more than 50000 nM in test [3].
For `Cc1c(-c2[nH]c3ccc(N4CCN(CC(=O)N(C)C)CC4=O)nc3c2C(C)C)cn2ncnc2c1C` [Example 141], the IC50 in test [1] is 148 nM; in test [2] it was 134 nM; in test [3], more than 50000 nM.
Take `Cc1c(-c2[nH]c3ccc(N4CCN(C)CC4=O)nc3c2C(C)C)cn2ncnc2c1C` [Example 142]: the figures for the IC50 in test [1], in test [2] and in test [3] were 45 nM, 107 nM and more than 50000 nM, respectively.
Consider `Cc1c(-c2[nH]c3ccc(N4CCN(C(=O)CN5CCOCC5)CC4)nc3c2C(C)C)cn2ncnc2c1C` [Example 143], for which the IC50 in test [1] is 4.5 nM; in test [2], 7.8 nM; in test [3], more than 50000 nM.
Regarding `Cc1c(-c2[nH]c3ccc(N4CCN(CC(=O)N(C)C)CC4)nc3c2C(C)C)cn2ncnc2c1C` [Example 144], the half-inhibitory concentration (IC50) in test [1] is 1.2 nM; in test [2], 8.4 nM; in test [3], more than 50000 nM.
The like results for `Cc1c(-c2[nH]c3ccc(N4CCN(C(=O)CN5CCCC5)CC4)nc3c2C(C)C)cn2ncnc2c1C` [Example 145] were, in that order, 0.49 nM, 1.5 nM and 8200 nM.
In the case of `Cc1c(-c2[nH]c3ccc(N4CCN(C(=O)CN5CCC5)CC4)nc3c2C(C)C)cn2ncnc2c1C` [Example 146], the IC50 in test [1] stood at 2.5 nM; in test [2] it was 5.6 nM; in test [3], 12900 nM.
For the compound `Cc1c(-c2[nH]c3ccc(N4CCN(CCCS(C)(=O)=O)CC4)nc3c2C(C)C)cn2ncnc2c1C` [Example 147], the IC50 is 0.26 nM in test [1], 5 nM in test [2] and 18700 nM in test [3].
For `Cc1c(-c2[nH]c3ccc(N4CCN(CCC#N)CC4)nc3c2C(C)C)cn2ncnc2c1C` [Example 148], the IC50 is 16 nM in test [1], 97 nM in test [2] and more than 50000 nM in test [3].
As to `Cc1c(-c2[nH]c3ccc(N4CCN(CCC(N)=O)CC4)nc3c2C(C)C)cn2ncnc2c1C` [Example 149], the IC50 in test [1] is 0.4 nM; in test [2], 9.3 nM; in test [3], 19500 nM.
The matching figures for `Cc1c(-c2[nH]c3ccc(N4CCNC(=O)C4)nc3c2C(C)C)cn2ncnc2c1C` [Example 150]: 2.7 nM, 12 nM and more than 50000 nM.
Regarding `Cc1c(-c2[nH]c3ccc(N4CCN(S(=O)(=O)CCN(C)C)CC4)nc3c2C(C)C)cn2ncnc2c1C` [Example 151], the values for the IC50 in test [1], in test [2] and in test [3] were 1.2 nM, 1.2 nM and 12000 nM, respectively.
As to `Cc1c(-c2[nH]c3ccc(N4CCNC[C@@H]4C)nc3c2C(C)C)cn2ncnc2c1C` [Example 152], the IC50 was 1.6 nM in test [1], 2.7 nM in test [2] and 5880 nM in test [3].
The like results for `Cc1c(-c2[nH]c3ccc(N4CCNC[C@H]4C)nc3c2C(C)C)cn2ncnc2c1C` [Example 153] were, in that order, 1.6 nM, 0.87 nM and 7150 nM.
Regarding `Cc1c(-c2[nH]c3ccc(N4CCN(CCN5CCOCC5)C(=O)C4)nc3c2C(C)C)cn2ncnc2c1C` [Example 154], the IC50 in test [1] is 600 nM; in test [2], 1920 nM; in test [3] it was more than 50000 nM.
The matching figures for `Cc1c(-c2[nH]c3ccc(N4CCN(CCN5CCOCC5)C(=O)C4)nc3c2C(C)C)cn2ncnc2c1C` [Example 155]: 56 nM, 401 nM and more than 50000 nM.
`Cc1c(-c2[nH]c3ccc(N4CCN(C(=O)CNC5CCC5)CC4)nc3c2C(C)C)cn2ncnc2c1C` [Example 156]: the IC50 turned out to be 0.79 nM in test [1], 1.5 nM in test [2] and 6750 nM in test [3].
Take `Cc1c(-c2[nH]c3ccc(N4CCN(C(=O)CNC(C)C)CC4)nc3c2C(C)C)cn2ncnc2c1C` [Example 157]: the values for the 50% inhibitory concentration (IC50) in test [1], in test [2] and in test [3] were 1.2 nM, 2.2 nM and 8840 nM, respectively.
The matching figures for `Cc1c(-c2[nH]c3ccc(N4CCN(C(=O)CNCCO)CC4)nc3c2C(C)C)cn2ncnc2c1C` [Example 158]: 0.96 nM, 2.3 nM and 8260 nM.
The matching figures for `COCCNCC(=O)N1CCN(c2ccc3[nH]c(-c4cn5ncnc5c(C)c4C)c(C(C)C)c3n2)CC1` [Example 159]: 1 nM, 2.4 nM and 7740 nM.
In the case of `Cc1c(-c2[nH]c3ccc(N4CCN(C(=O)CN5CCC(O)CC5)CC4)nc3c2C(C)C)cn2ncnc2c1C` [Example 160], the figures for the IC50 in test [1], in test [2] and in test [3] were 1.2 nM, 1.8 nM and 10600 nM, respectively.
As for `Cc1c(-c2[nH]c3ccc(N4CCN(C(=O)CNCC5CC5)CC4)nc3c2C(C)C)cn2ncnc2c1C` [Example 161], the IC50 in test [1] stood at 0.92 nM; in test [2] it was 1.4 nM; in test [3], 5920 nM.
In the case of `Cc1c(-c2[nH]c3ccc(N4CCCNCC4)nc3c2C(C)C)cn2ncnc2c1C` [Example 162], the IC50 is 2.8 nM in test [1], 2.8 nM in test [2] and 23100 nM in test [3].
On to `Cc1c(-c2[nH]c3ccc(N4CCCN(CC(=O)N(C)C)CC4)nc3c2C(C)C)cn2ncnc2c1C` [Example 163], for which the IC50 in test [1] is 5 nM; in test [2], 9.7 nM; in test [3], 24800 nM.
Consider `Cc1c(-c2[nH]c3ccc(N4CCC(NCC5(S(C)(=O)=O)CC5)C4)nc3c2C(C)C)cn2ncnc2c1C` (stereo not drawn) [Example 165], for which the IC50 in test [1] was found to be 0.68 nM; in test [2], 11 nM; in test [3], 22700 nM.
As for `COc1cc(-c2[nH]c3ccc(C4CCC(N(C)CCC#N)CC4)nc3c2C(C)C)cn2ncnc12` (stereo not drawn) [Example 166], the values for the IC50 in test [1], in test [2] and in test [3] were 18 nM, 1.5 nM and 2190 nM, respectively.
Turning to `COc1cc(-c2[nH]c3ccc(C4CCC(NC(C)C)CC4)nc3c2C(C)C)cn2ncnc12` (stereo not drawn) [Example 167], the values for the IC50 in test [1], in test [2] and in test [3] were 1.7 nM, 0.43 nM and 156 nM, respectively.
Consider `COc1cc(-c2[nH]c3ccc(C4CCC(N(C)C(C)C)CC4)nc3c2C(C)C)cn2ncnc12` (stereo not drawn) [Example 168], for which the IC50 in test [1] was 3.4 nM; in test [2] it was 0.89 nM; in test [3] it was 658 nM.
In the case of `COc1cc(-c2[nH]c3ccc(C4CCC(N(C)CCO)CC4)nc3c2C(C)C)cn2ncnc12` (stereo not drawn) [Example 169], the IC50 worked out at 21 nM in test [1], 3.1 nM in test [2] and 1220 nM in test [3].
For the compound `COc1cc(-c2[nH]c3ccc(C4CCC(N(C)C(C)C)CC4)nc3c2C(C)C)cn2ncnc12` (stereo not drawn) [Example 170], the IC50 in test [1] stood at 17 nM; in test [2] it was 2 nM; in test [3] it was 1410 nM.

(Values after patent publication US10544143B2, “4-azaindole compounds” (BRISTOL-MYERS SQUIBB COMPANY, priority 2017, dated 2020).)
